Values of other authors, collected in patent publication US5554621A, “Dihydropyridine NPY antagonists: nitrogen heterocyclic derivatives” (Bristol-Myers Squibb Company, priority 1995, dated 1996).

Legend:
[1] = system: NPY-induced pressor response; conditions: pithed rat
[2] = system: NPY-induced increase in intracellular Ca++ in SK-N-Mc cells
[3] = system: NPY-induced contractions in guinea pig basilar artery
3H-NPY in rat brain = conditions: read-out: IC50 (displacement of 3H-NPY)
Y2 receptor = biological target: T1, Y2 receptor (Rattus norvegicus, UniProt Q9ERC0); conditions: functional selectivity for Y2 receptor
T1 sequence (Q9ERC0 1-381): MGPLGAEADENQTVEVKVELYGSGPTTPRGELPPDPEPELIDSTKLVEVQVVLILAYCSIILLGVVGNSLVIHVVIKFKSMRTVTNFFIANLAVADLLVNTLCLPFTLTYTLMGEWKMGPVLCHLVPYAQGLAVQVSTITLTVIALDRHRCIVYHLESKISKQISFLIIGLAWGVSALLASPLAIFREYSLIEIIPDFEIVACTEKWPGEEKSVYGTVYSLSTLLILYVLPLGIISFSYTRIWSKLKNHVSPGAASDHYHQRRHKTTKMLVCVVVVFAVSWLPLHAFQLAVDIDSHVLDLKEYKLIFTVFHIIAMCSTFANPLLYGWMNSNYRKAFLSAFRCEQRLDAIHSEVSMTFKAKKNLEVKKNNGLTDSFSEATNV

NPY1 = biological target: T2, NPY1 (Rattus norvegicus, UniProt P21555)
T2 construct: vasoconstrictive activity of the NPY1 agonist
T2 sequence (P21555 1-382): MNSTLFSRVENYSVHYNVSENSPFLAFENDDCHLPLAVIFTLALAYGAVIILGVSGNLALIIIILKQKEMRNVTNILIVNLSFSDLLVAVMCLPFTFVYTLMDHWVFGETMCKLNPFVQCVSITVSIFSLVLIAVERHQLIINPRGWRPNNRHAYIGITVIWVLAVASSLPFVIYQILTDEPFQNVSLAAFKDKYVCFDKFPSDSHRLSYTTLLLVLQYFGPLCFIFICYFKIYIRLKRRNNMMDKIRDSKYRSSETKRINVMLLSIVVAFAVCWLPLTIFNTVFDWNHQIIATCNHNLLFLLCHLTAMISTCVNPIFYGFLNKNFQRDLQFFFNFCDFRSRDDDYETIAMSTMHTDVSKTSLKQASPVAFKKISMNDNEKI

[4] = system: NPY-related increases in diastolic blood pressure; conditions: anesthetized guinea pig
[5] = system: I-125 labeled NPY and PYY in human neuroblastoma cells

N=C(N)NCCC[C@@H](NC(=O)C(c1ccccc1)c1ccccc1)C(=O)NCc1ccc(O)cc1 [BIBP 3226]
Antagonism of NPY-induced pressor response [1]: antagonizing
Antagonism of NPY-induced increase in intracellular Ca++ [2]: antagonized

O=P(O)(O)O[C@@H]1[C@H](OP(=O)(O)O)[C@H](O)[C@@H](O)[C@H](O)[C@H]1OP(=O)(O)O [D-Myo-inositol-1,2,6-triphosphate]
Antagonism of NPY-induced contractions [3]: potent but non-competitive antagonist

N=C(N)N(CCCCCCNCc1ccc2ccccc2c1)CCCCCCN(CCCCCCNCc1ccc2ccccc2c1)C(=N)N [Example 6b]
IC50 (3H-NPY in rat brain): 18.4 µM
Functional antagonism (rat femoral artery): functional antagonism
Effect against NPY2 agonist NPY13-36 (Y2 receptor): antagonized the effect
Effect on vasoconstrictive activity of NPY1 agonist [Leu31, Pro34]NPY (NPY1): no effect

CN(C)CC1CCC(CNC(=N)c2ccc(CC(NC(=O)C(Cc3ccccc3)NS(=O)(=O)c3ccc4ccccc4c3)C(=O)N3CCCC3)cc2)CC1 (stereo not drawn) [SR 120819A]
Antagonism of NPY-related increases in diastolic blood pressure [4]: antagonized
Displacement of I-125 labeled NPY and PYY [5]: displacing
